Test results taken from patent US9738634B2, “Heterocyclic amide compound and herbicide” (SYNGENTA PARTICIPATIONS AG, priority 2013, dated 2017).

Legend:
Assay type in all cases: in vivo
barnyard grass [1] = assay: Test Example 1: weedkilling efficacy, preemergent weed treatment in the submerged state; A: barnyard grass; conditions: treatment dosage 252 g/ha
How it was run: (§1)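 Alluvial soil in Wagner pots flooded to 4 cm; barnyard grass, bulrush and oval-leafed pondweed seeds sown, then 2.5-leaf rice seedlings transplanted. Same day, emulsified compound diluted in water to set g/ha dosages and applied to water surface; greenhouse 25–30 °C, effect scored by criteria after 3 weeks.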

bulrush [2] = assay: Test Example 1: weedkilling efficacy, preemergent weed treatment in the submerged state; B: bulrush; conditions: treatment dosage 252 g/ha
How it was run: as §1

oval-leafed pondweed [3] = assay: Test Example 1: weedkilling efficacy, preemergent weed treatment in the submerged state; C: oval-leafed pondweed; conditions: treatment dosage 252 g/ha
How it was run: as §1

transplanted rice = assay: Test Example 1: preemergent weed treatment in the submerged state, effect on crop; a: transplanted rice; conditions: treatment dosage 252 g/ha
How it was run: as §1

barnyard grass [4] = assay: Test Example 2: weedkilling efficacy, growth period weed treatment in the submerged state; A: barnyard grass; conditions: treatment dosage 252 g/ha
How it was run: (§2)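 First, alluvial soil in pots is flooded to 4 cm and mixed seed is sown. Next, plants grow in a greenhouse at 25 to 30° C until the 1-2 leaf stage. Then diluted emulsion is applied onto the water surface at the given g/ha rate, and injury is assessed after 3 weeks.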

bulrush [5] = assay: Test Example 2: weedkilling efficacy, growth period weed treatment in the submerged state; B: bulrush; conditions: treatment dosage 252 g/ha
How it was run: as §2

oval-leafed pondweed [6] = assay: Test Example 2: weedkilling efficacy, growth period weed treatment in the submerged state; C: oval-leafed pondweed; conditions: treatment dosage 252 g/ha
How it was run: as §2

crabgrass [7] = assay: Test Example 3: weedkilling efficacy through soil treatment; D: crabgrass; conditions: treatment dosage 315 g/ha
How it was run: (§3)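 Crop and weed responses were judged three weeks after a uniform surface spray of the water-diluted emulsion at the given g/ha rate. Seeds sat beneath about 1.5 cm of sterilized diluvial soil, and boxes stood in a greenhouse at 25 to 30° C.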

green foxtail [8] = assay: Test Example 3: weedkilling efficacy through soil treatment; E: green foxtail; conditions: treatment dosage 315 g/ha
How it was run: as §3

black-grass [9] = assay: Test Example 3: weedkilling efficacy through soil treatment; H: black-grass
How it was run: as §3

Italian ryegrass [10] = assay: Test Example 3: weedkilling efficacy through soil treatment; I: Italian ryegrass
How it was run: as §3

Indian mallow [11] = assay: Test Example 3: weedkilling efficacy through soil treatment; K: Indian mallow; conditions: treatment dosage 315 g/ha
How it was run: as §3

redroot pigweed [12] = assay: Test Example 3: weedkilling efficacy through soil treatment; L: redroot pigweed; conditions: treatment dosage 315 g/ha
How it was run: as §3

chickweed [13] = assay: Test Example 3: weedkilling efficacy through soil treatment; N: chickweed; conditions: treatment dosage 315 g/ha
How it was run: as §3

birds-eye speedwell [14] = assay: Test Example 3: weedkilling efficacy through soil treatment; p: birds-eye speedwell; conditions: treatment dosage 315 g/ha
How it was run: as §3

directly sown rice [15] = assay: Test Example 3: soil treatment, effect on crop; b: directly sown rice; conditions: treatment dosage 315 g/ha
How it was run: as §3

corn [16] = assay: Test Example 3: soil treatment, effect on crop; c: corn; conditions: treatment dosage 315 g/ha
How it was run: as §3

soybean [17] = assay: Test Example 3: soil treatment, effect on crop; d: soybean; conditions: treatment dosage 315 g/ha
How it was run: as §3

wheat [18] = assay: Test Example 3: soil treatment, effect on crop; e: wheat
How it was run: as §3

beet [19] = assay: Test Example 3: soil treatment, effect on crop; f: beet; conditions: treatment dosage 315 g/ha
How it was run: as §3

crabgrass [20] = assay: Test Example 4: weedkilling efficacy by foliar treatment; D: crabgrass; conditions: treatment dosage 315 g/ha
Method: (§4) Testing of Weedkilling Efficacy by Foliar Treatment
(§5) Sterilized diluvial soil was introduced into 21 cm long, 13 cm wide, 7 cm deep plastic boxes, and seeds of crabgrass, green foxtail, barnyard grass, wild oat, black-grass, Italian ryegrass, common wind-grass, Indian mallow, redroot pigweed, fig-leafed goosefoot, chickweed, catchweed, birds-eye speedwell, corn, soybean, rice, wheat, beet and rapeseed were each spot-sown, and covered with about 1.5 cm of soil, then the plants were grown in a greenhouse at 25 to 30° C.
(§6) After they had grown for 14 days, emulsions of compounds of the present invention prepared according to compounding example 2 were diluted with water to give the specified dosages, and applied uniformly onto the stem and leaf parts with a small sprayer. 3 weeks after the pesticide treatment the effect on each type of plant was investigated on the basis of the assessment criteria of test example 1.
(§7) A: barnyard grass, B: bulrush, C: oval-leafed pondweed, D: crabgrass, E: green foxtail, F: barnyard grass, G: wild oat, H: black-grass, I: Italian ryegrass, J: common wind-grass, K: Indian mallow, L: redroot pigweed, M: fig-leafed goosefoot, N: chickweed, O: catchweed, p: birds-eye speedwell, a: transplanted rice, b: directly sown rice, c: corn, d: soybean, e: wheat, f: beet, g: rapeseed
(§8) Further, pesticide dosage (g/ha) indicates the concentration regulated such that treatment was with only the stated number of grams (g), when calculated per hectare (ha).

green foxtail [21] = assay: Test Example 4: weedkilling efficacy by foliar treatment; E: green foxtail; conditions: treatment dosage 315 g/ha
Method: as §4, §5, §6, §7, §8

black-grass [22] = assay: Test Example 4: weedkilling efficacy by foliar treatment; H: black-grass; conditions: treatment dosage 315 g/ha
Method: as §4, §5, §6, §7, §8

Italian ryegrass [23] = assay: Test Example 4: weedkilling efficacy by foliar treatment; I: Italian ryegrass; conditions: treatment dosage 315 g/ha
Method: as §4, §5, §6, §7, §8

Indian mallow [24] = assay: Test Example 4: weedkilling efficacy by foliar treatment; K: Indian mallow; conditions: treatment dosage 315 g/ha
Method: as §4, §5, §6, §7, §8

redroot pigweed [25] = assay: Test Example 4: weedkilling efficacy by foliar treatment; L: redroot pigweed; conditions: treatment dosage 315 g/ha
Method: as §4, §5, §6, §7, §8

fig-leafed goosefoot = assay: Test Example 4: weedkilling efficacy by foliar treatment; M: fig-leafed goosefoot; conditions: treatment dosage 315 g/ha
Method: as §4, §5, §6, §7, §8

chickweed [26] = assay: Test Example 4: weedkilling efficacy by foliar treatment; N: chickweed; conditions: treatment dosage 315 g/ha
Method: as §4, §5, §6, §7, §8

catchweed = assay: Test Example 4: weedkilling efficacy by foliar treatment; O: catchweed; conditions: treatment dosage 315 g/ha
Method: as §4, §5, §6, §7, §8

birds-eye speedwell [27] = assay: Test Example 4: weedkilling efficacy by foliar treatment; p: birds-eye speedwell; conditions: treatment dosage 315 g/ha
Method: as §4, §5, §6, §7, §8

directly sown rice [28] = assay: Test Example 4: foliar treatment, effect on crop; b: directly sown rice; conditions: treatment dosage 315 g/ha
Method: as §4, §5, §6, §7, §8

corn [29] = assay: Test Example 4: foliar treatment, effect on crop; c: corn; conditions: treatment dosage 315 g/ha
Method: as §4, §5, §6, §7, §8

soybean [30] = assay: Test Example 4: foliar treatment, effect on crop; d: soybean; conditions: treatment dosage 315 g/ha
Method: as §4, §5, §6, §7, §8

wheat [31] = assay: Test Example 4: foliar treatment, effect on crop; e: wheat; conditions: treatment dosage 315 g/ha
Method: as §4, §5, §6, §7, §8

beet [32] = assay: Test Example 4: foliar treatment, effect on crop; f: beet; conditions: treatment dosage 315 g/ha
Method: as §4, §5, §6, §7, §8

common wind-grass = assay: Test Example 3: weedkilling efficacy through soil treatment; J: common wind-grass; conditions: soil treatment, treatment dosage 80 g/ha
Text: (§9) Weedkilling Efficacy Test Through Soil Treatment
(§10) Sterilized diluvial soil was introduced into 21 cm long, 13 cm wide, 7 cm deep plastic boxes, and seeds of crabgrass, green foxtail, barnyard grass, wild oat, black-grass, Italian ryegrass, common wind-grass, Indian mallow, redroot pigweed, fig-leafed goosefoot, chickweed, catchweed, birds-eye speedwell, corn, soybean, rice, wheat, beet and rapeseed were each spot-sown, and covered with about 1.5 cm of soil. Next, emulsions of compounds of the present invention prepared according to compounding example 2 were diluted with water to give the specified dosages, and applied uniformly onto the soil surface with a small sprayer. The plants were grown by placing the plastic boxes in a greenhouse at 25 to 30° C., and 3 weeks after the pesticide treatment the effect on each type of plant was investigated on the basis of the assessment criteria of test example 1.
as §7, §8

rapeseed = assay: Test Example 3: soil treatment, effect on crop; g: rapeseed; conditions: soil treatment, treatment dosage 80 g/ha
Text: as §9, §10, §7, §8

[33] = soil treatment, treatment dosage 80 g/ha

COc1nsc(NC(=O)C(C)(C)N2COC(C)=C(c3ccccc3)C2=O)n1 [B-1-15]
A (barnyard grass) weedkilling efficacy grade (barnyard grass [1]): 5 (weed kill ratio 90% or more, (practically complete withering)) | B (bulrush) weedkilling efficacy grade (bulrush [2]): 5 (weed kill ratio 90% or more, (practically complete withering)) | C (oval-leafed pondweed) weedkilling efficacy grade (oval-leafed pondweed [3]): 5 (weed kill ratio 90% or more, (practically complete withering)) | a (transplanted rice) effect on crop grade (transplanted rice): 0 (weed kill ratio 5% or less (practically no effect)) | A (barnyard grass) weedkilling efficacy grade (barnyard grass [4]): 4 (weed kill ratio 70% or more, less than 90%) | B (bulrush) weedkilling efficacy grade (bulrush [5]): 5 (weed kill ratio 90% or more, (practically complete withering)) | C (oval-leafed pondweed) weedkilling efficacy grade (oval-leafed pondweed [6]): 5 (weed kill ratio 90% or more, (practically complete withering)) | D (crabgrass) weedkilling efficacy grade (crabgrass [7]): 5 (weed kill ratio 90% or more, (practically complete withering)) | E (green foxtail) weedkilling efficacy grade (green foxtail [8]): 5 (weed kill ratio 90% or more, (practically complete withering)) | H (black-grass) weedkilling efficacy grade (black-grass [9]; treatment dosage 315 g/ha): 5 (weed kill ratio 90% or more, (practically complete withering)) | I (Italian ryegrass) weedkilling efficacy grade (Italian ryegrass [10]; treatment dosage 315 g/ha): 5 (weed kill ratio 90% or more, (practically complete withering)) | K (Indian mallow) weedkilling efficacy grade (Indian mallow [11]): 4 (weed kill ratio 70% or more, less than 90%) | L (redroot pigweed) weedkilling efficacy grade (redroot pigweed [12]): 5 (weed kill ratio 90% or more, (practically complete withering)) | N (chickweed) weedkilling efficacy grade (chickweed [13]): 5 (weed kill ratio 90% or more, (practically complete withering)) | P (birds-eye speedwell) weedkilling efficacy grade (birds-eye speedwell [14]): 5 (weed kill ratio 90% or more, (practically complete withering)) | b (directly sown rice) effect on crop grade (directly sown rice [15]): 5 (weed kill ratio 90% or more, (practically complete withering)) | c (corn) effect on crop grade (corn [16]): 0 (weed kill ratio 5% or less (practically no effect)) | d (soybean) effect on crop grade (soybean [17]): 0 (weed kill ratio 5% or less (practically no effect)) | e (wheat) effect on crop grade (wheat [18]; treatment dosage 315 g/ha): 4 (weed kill ratio 70% or more, less than 90%) | f (beet) effect on crop grade (beet [19]): 4 (weed kill ratio 70% or more, less than 90%) | D (crabgrass) weedkilling efficacy grade (crabgrass [20]): 5 (weed kill ratio 90% or more, (practically complete withering)) | E (green foxtail) weedkilling efficacy grade (green foxtail [21]): 5 (weed kill ratio 90% or more, (practically complete withering)) | H (black-grass) weedkilling efficacy grade (black-grass [22]): 5 (weed kill ratio 90% or more, (practically complete withering)) | I (Italian ryegrass) weedkilling efficacy grade (Italian ryegrass [23]): 4 (weed kill ratio 70% or more, less than 90%) | K (Indian mallow) weedkilling efficacy grade (Indian mallow [24]): 5 (weed kill ratio 90% or more, (practically complete withering)) | L (redroot pigweed) weedkilling efficacy grade (redroot pigweed [25]): 5 (weed kill ratio 90% or more, (practically complete withering)) | M (fig-leafed goosefoot) weedkilling efficacy grade (fig-leafed goosefoot): 3 (weed kill ratio 40% or more, less than 70%) | N (chickweed) weedkilling efficacy grade (chickweed [26]): 4 (weed kill ratio 70% or more, less than 90%) | O (catchweed) weedkilling efficacy grade (catchweed): 4 (weed kill ratio 70% or more, less than 90%) | P (birds-eye speedwell) weedkilling efficacy grade (birds-eye speedwell [27]): 4 (weed kill ratio 70% or more, less than 90%) | b (directly sown rice) effect on crop grade (directly sown rice [28]): 4 (weed kill ratio 70% or more, less than 90%) | c (corn) effect on crop grade (corn [29]): 4 (weed kill ratio 70% or more, less than 90%) | d (soybean) effect on crop grade (soybean [30]): 4 (weed kill ratio 70% or more, less than 90%) | e (wheat) effect on crop grade (wheat [31]): 3 (weed kill ratio 40% or more, less than 70%) | f (beet) effect on crop grade (beet [32]): 4 (weed kill ratio 70% or more, less than 90%)

CC(C)(C(=O)Nc1ccnc(Cl)n1)N1COCN(c2ccccc2)C1=O [A-1-20]
H: black-grass, weedkilling efficacy grade (black-grass [9]; [33]): 5 (weed kill ratio 90% or more, (practically complete withering)) | I: Italian ryegrass, weedkilling efficacy grade (Italian ryegrass [10]; [33]): 5 (weed kill ratio 90% or more, (practically complete withering)) | J: common wind-grass, weedkilling efficacy grade (common wind-grass): 5 (weed kill ratio 90% or more, (practically complete withering)) | e: wheat, effect on crop grade (wheat [18]; [33]): 1 (weed kill ratio 5% or more, less than 20%) | g: rapeseed, effect on crop grade (rapeseed): 1 (weed kill ratio 5% or more, less than 20%)
